Converted amounts (≈) assume the structure as drawn.
Assays:
[1] = Toxicity against Bugula neritina larvae
[2] = system: HeLa; test: Cytotoxicity against human HeLa cells incubated for 48 hrs by MTT assay; assay type: functional, cell-based
[3] = Antifouling activity against Bugula neritina larvae; assay type: functional
[4] = Selectivity index, ratio of cytotoxic LC50 to antifouling EC50 in Bugula neritina larvae

| Structure (SMILES) | LC50 [1] [µg/mL] | IC50 [2] [µg/mL] | EC50 [3] [µg/mL] | Selectivity Index [4] |
| --- | --- | --- | --- | --- |
| CC(=O)O[C@H]1O[C@H](CCC(C)C)[C@@H](C)[C@H]2CC[C@H]3[C@@H]4CCC5=CC(=O)C=C[C@]5(C)[C@H]4CC[C@]123 | > 25 | 19.6 (≈ 43.1 µM) | > 25 |  |
| CC(=O)O[C@@H]1O[C@H](CCC(C)C)[C@@H](C)[C@H]2CC[C@H]3[C@@H]4CCC5=CC(=O)C=C[C@]5(C)[C@H]4CC[C@]123 | > 25 | 10.1 (≈ 22.2 µM) | > 25 |  |
| CC(C)CC[C@H]1OC(O)[C@]23CC[C@H]4[C@@H](CCC5=CC(=O)C=C[C@@]54C)[C@@H]2CC[C@@H]3[C@@H]1C (mixture of isomers) [NEPHTHOACETAL] | > 25 | 12.3 | 2.5 | >10 |

— ChEMBL document CHEMBL2311533, “Pentacyclic hemiacetal sterol with antifouling and cytotoxic activities from the soft coral Nephthea sp” (Bioorg Med Chem Lett, 2013)
